Test results published in patent EP0745595A1, “3-(3-Aryloxyphenyl)-1-(substituted methyl)-s-triazine-2,4,6-oxo or thiotrione herbicidal agents” (American Cyanamid Company, priority 1995, dated 1996).

Assays:
Format in all cases: in vivo
[1] = tested on: ABUTILON THEOPHRASTI, MEDIC.; assay: Postemergence herbicidal evaluation, ABUTH (Velvetleaf); settings: rated four to five weeks after treatment, averaged
How it was run: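 This postemergence herbicide test used two-week-old velvetleaf seedlings grown in jiffy flats. Each compound was sprayed at 40 psi as a dispersion in 50/50 acetone/water with 0.5% TWEEN®20 surfactant. Plants then received routine greenhouse care. After four to five weeks, injury was scored visually on a 0-9 scale against a control, and replicate tests were averaged.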

[2] = tested on: ORYZA SATIVA, L. TEBONNET; assay: Rice tolerance to post-transplant applications under flooded paddy conditions, ORYSAT (Rice, Tebonnet); settings: post-transplant rice, rated three to four weeks after treatment;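 note: applied to flooded soil surface three days after transplanting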
How it was run: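 Greenhouse pots of silt loam, each with two transplanted ten-day-old seedlings, are held under 1.5 to 3 cm of standing water. Three days later the compound is applied to the flooded surface at about 0.5, 0.25, 0.125 or 0.063 kg/ha. Damage is scored visually 0-9 after 3-4 weeks.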

CHENOPODIUM ALBUM, L. [3] = assay: Preemergence herbicidal evaluation, CHEAL (Lambsquarters, Common); settings: four to five weeks after treatment
Source text: (§1) Results of herbicide evaluation are expressed on a rating scale (0-9). The scale is based upon a visual observation of plant stand, vigor, malformation, size, chlorosis and overall plant appearance as compared with a control.
The preemergence herbicidal activity of the test compounds of the present invention is exemplified by the following tests in which the seeds of a variety of monocotyledonous and dicotyledonous plants are separately mixed with potting soil and planted on top of approximately one inch of soil in separate pint cups. […] The treated cups are then placed on greenhouse benches, watered and cared for in accordance with conventional greenhouse procedures. From four to five weeks after treatment, the tests are terminated and each cup is examined and rated according to the rating system provided in Example 40.
The compounds evaluated are reported by compound number given in Example 40.

CHENOPODIUM ALBUM, L. [4] = assay: Postemergence herbicidal evaluation, CHEAL (Lambsquarters, Common); settings: rated four to five weeks after treatment, averaged
Procedure: (§2) In the tests, seedling plants are grown in jiffy flats for about two weeks. The test compounds are dispersed in 50/50 acetone/water mixtures containing 0.5% TWEEN®20, a polyoxyethylene sorbitan monolaurate surfactant of Atlas Chemical Industries, […] to the plants through a spray nozzle operating at 40 psi for a predetermined time. After spraying, the plants are placed on greenhouse benches and are cared for in the usual manner, commensurate with conventional greenhouse practices. From four to five weeks after treatment, the seedling plants are examined and rated according to the rating system set forth below. Where more than one test is involved for a given compound, the data are averaged.
(§3) Plant species employed in these evaluations are reported by header abbreviation, common name and scientific name.
as §1

[5] = tested on: ECHINOCHLOA ORYZOIDES (ARD.)FRITSCH; assay: Preemergence weed control under flooded paddy conditions, ECHORC (Watergrass (Calif.)); settings: preemergence weeds, rated three to four weeks after treatment
Procedure: as §1
(§4) Preemergence herbicidal activity under flooded paddy conditions is determined as follows: plant seeds or propagating organs are planted in the top 0.5 cm of silt loam soil in 32 oz. plastic containers with a diameter of 10.5 cm and no drainage holes. Water is added to these containers and maintained at 1.5 to 3 cm above the soil surface for the duration of the experiment. […] The treated containers are placed on greenhouse benches and cared for according to normal greenhouse procedures.- Three to four weeks after treatment the test is terminated and each container is examined and herbicidal effect rated according to the rating system provided in Example 40. The compounds evaluated are reported by compound number given in Example 40.
(§5) Plant species employed in this example are reported by header abbreviation, common name and scientific name.

CASSIA OBTUSIFOLIA, L. = assay: Postemergence herbicidal evaluation, CASOB (Sicklepod); settings: rated four to five weeks after treatment, averaged
Procedure: In the tests, seedling plants are grown in jiffy flats for about two weeks. The test compounds are dispersed in 50/50 acetone/water mixtures containing 0.5% TWEEN®20, a polyoxyethylene sorbitan monolaurate surfactant of Atlas Chemical Industries, in sufficient quantities to provide the equivalent of about 0.125 kg to 0.500 kg per hectare of active compound when applied to the plants through a spray nozzle operating at 40 psi for a predetermined time. After spraying, the plants are placed on greenhouse benches and are cared for in the usual manner, commensurate with conventional greenhouse practices. From four to five weeks after treatment, the seedling plants are examined and rated according to the rating system set forth below. Where more than one test is involved for a given compound, the data are averaged.
as §3, §1

IPOMOEA SPP. = assay: Postemergence herbicidal evaluation, IPOSS (Morningglory spp.); settings: rated four to five weeks after treatment, averaged
How it was run: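 In this greenhouse postemergence herbicide test on Ipomoea spp. (morningglory), compounds in 50/50 acetone/water with 0.5% TWEEN®20 were sprayed at 40 psi onto seedlings about two weeks old grown in jiffy flats. After four to five weeks, injury was scored on a 0-9 scale covering stand, vigor, malformation, size, chlorosis and overall appearance versus control, with repeat tests averaged.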

CYPERUS IRIA = assay: Preemergence weed control under flooded paddy conditions, CYPIR (Rice Flatsedge); settings: preemergence weeds, rated three to four weeks after treatment
Procedure: as §1, §4, §5

[…], PRESL. = Preemergence weed control under flooded paddy conditions, MOOVA (Monochoria); settings: preemergence weeds, rated three to four weeks after treatment
Procedure: as §1
Preemergence herbicidal activity under flooded paddy conditions is determined as follows: plant seeds or propagating organs are planted in the top 0.5 cm of silt loam soil in 32 oz. plastic containers with a diameter of 10.5 cm and no drainage holes. Water is added to these containers and maintained at 1.5 to 3 cm above the soil surface for the duration of the experiment. The test compounds are applied as aqueous/acetone mixtures 50/50 v/v pipetted directly into the flood water to give the equivalent of about 0.5, 0.25, 0.125 and 0.063 kg/ha of active ingredient. The treated containers are placed on greenhouse benches and cared for according to normal greenhouse procedures.- Three to four weeks after treatment the test is terminated and each container is examined and herbicidal effect rated according to the rating system provided in Example 40. The compounds evaluated are reported by compound number given in Example 40.
as §5

[6] = tested on: AMBROSIA ARTEMISIIFOLIA, L.; assay: Postemergence herbicidal evaluation, AMBEL (Ragweed, Common); settings: rated four to five weeks after treatment, averaged
Procedure: as §2, §3, §1

## CCOC(=O)Cn1c(=O)n(C)c(=O)n(-c2cc(Oc3ccc(C(F)(F)F)cc3Cl)ccc2[N+](=O)[O-])c1=O [Compound 9, Ethyl 3-{5-[(2-chloro-α,α,α-trifluoro-p-tolyl)oxy]-2-nitrophenyl}tetrahydro-5-methyl-2,4,6-trioxo-s-triazine-1(2H)-acetate]
[1]; Rate 0.125 kg/ha
  ABUTH, herbicide rating (0-9): 9.0
[1]; Rate 0.250 kg/ha
  ABUTH, herbicide rating (0-9): 9.0
[1]; Rate 0.500 kg/ha
  ABUTH, herbicide rating (0-9): 9.0
[2]; Rate 0.063 kg/ha
  ORYSAT herbicidal rating (rice tolerance): 3.3
[2]; Rate 0.125 kg/ha
  ORYSAT herbicidal rating (rice tolerance): 3.7
[2]; Rate 0.250 kg/ha
  ORYSAT herbicidal rating (rice tolerance): 5.7
[2]; Rate 0.500 kg/ha
  ORYSAT herbicidal rating (rice tolerance): 6.0
CHENOPODIUM ALBUM, L. [3]; Rate 0.125 kg/ha
  CHEAL rating: 9.0
CHENOPODIUM ALBUM, L. [3]; Rate 0.250 kg/ha
  CHEAL rating: 9.0
CHENOPODIUM ALBUM, L. [3]; Rate 0.500 kg/ha
  CHEAL rating: 9.0
CHENOPODIUM ALBUM, L. [4]; Rate 0.125 kg/ha
  CHEAL, herbicide rating (0-9): 9.0
CHENOPODIUM ALBUM, L. [4]; Rate 0.250 kg/ha
  CHEAL, herbicide rating (0-9): 9.0
CHENOPODIUM ALBUM, L. [4]; Rate 0.500 kg/ha
  CHEAL, herbicide rating (0-9): 9.0
[5]; Rate 0.063 kg/ha
  ECHORC herbicidal rating: 9.0
[5]; Rate 0.125 kg/ha
  ECHORC herbicidal rating: 9.0
[5]; Rate 0.250 kg/ha
  ECHORC herbicidal rating: 9.0
[5]; Rate 0.500 kg/ha
  ECHORC herbicidal rating: 9.0
CASSIA OBTUSIFOLIA, L.; Rate 0.125 kg/ha
  CASOB, herbicide rating (0-9): 9.0
CASSIA OBTUSIFOLIA, L.; Rate 0.250 kg/ha
  CASOB, herbicide rating (0-9): 9.0
CASSIA OBTUSIFOLIA, L.; Rate 0.500 kg/ha
  CASOB, herbicide rating (0-9): 9.0
IPOMOEA SPP.; Rate 0.125 kg/ha
  IPOSS, herbicide rating (0-9): 9.0
IPOMOEA SPP.; Rate 0.250 kg/ha
  IPOSS, herbicide rating (0-9): 9.0
IPOMOEA SPP.; Rate 0.500 kg/ha
  IPOSS, herbicide rating (0-9): 9.0
CYPERUS IRIA; Rate 0.063 kg/ha
  CYPIR herbicidal rating: 9.0
CYPERUS IRIA; Rate 0.125 kg/ha
  CYPIR herbicidal rating: 9.0
CYPERUS IRIA; Rate 0.250 kg/ha
  CYPIR herbicidal rating: 9.0
CYPERUS IRIA; Rate 0.500 kg/ha
  CYPIR herbicidal rating: 9.0
[…], PRESL.; Rate 0.063 kg/ha
  MOOVA herbicidal rating: 9.0
[…], PRESL.; Rate 0.125 kg/ha
  MOOVA herbicidal rating: 9.0
[…], PRESL.; Rate 0.250 kg/ha
  MOOVA herbicidal rating: 9.0
[…], PRESL.; Rate 0.500 kg/ha
  MOOVA herbicidal rating: 9.0
[6]; Rate 0.125 kg/ha
  AMBEL, herbicide rating (0-9): 9.0
[6]; Rate 0.250 kg/ha
  AMBEL, herbicide rating (0-9): 9.0
[6]; Rate 0.500 kg/ha
  AMBEL, herbicide rating (0-9): 9.0
